Five compounds from patent US4560685A, “2-Piperazino-pteridines useful as antithrombotics and antimetastatics” (Dr. Karl Thomae Gesellschaft mit beschrankter Haftung, priority 1984, dated 1985) can be followed below.

This data set relates to mice. Nature of the data set: Approximate acute toxicity after oral administration. The data set is classed as in vivo. The conditions noted are these: single dose, observation period 14 days; for animals died: 250 mg/kg. How it is done: The approximate acute toxicity of the test compounds was determined on groups of 5 mice after oral administration of a single dose (observation period: 14 days).

As for `CN(C)c1nc2nc(N3CCNCC3)nc(N(C)C)c2nc1SCc1ccccc1` [C, 6-benzylthio-4,7-bis-(dimethylamino)-2-piperazino-pteridine], the animals died was 0 out of 5 and the Approximate acute toxicity is over 250 mg/kg.
Taken in the same sequence, the figures for `CSc1nc2c(N3CC[S+]([O-])CC3)nc(N3CCNCC3)nc2nc1NCc1ccccc1` [D, 7-benzylamino-6-methylthio-4-(1-oxido-thiomorpholino)-2-piperazino-pteridine] were 0 out of 5 and over 250 mg/kg.
Taken in the same sequence, the figures for `CN(C)c1nc2nc(N3CCNCC3)nc(N(C)C)c2nc1Cl` [B, 6-chloro-4,7-bis(dimethylamino)-2-piperazino-pteridine] were 0 out of 5 and over 250 mg/kg.
Taken in the same sequence, the figures for `c1ccc(CSc2nc3c(N4CCOCC4)nc(N4CCNCC4)nc3nc2N2CCOCC2)cc1` [Compound A, 6-benzylthio-4,7-dimorpholino-2-piperazino-pteridine] were 0 out of 5 and over 250 mg/kg.
As to `CN(C)c1nc(N2CCNCC2)nc2nc(NCc3ccccc3)c(Cl)nc12` [E, 6-chloro-2-piperazino-4-dimethylamino-7-benzylamino-pteridine], the animals died is on record as 0 out of 5 and the Approximate acute toxicity was over 250 mg/kg.
